According to paper PMC8761912, “Cryptosporidium parvum Pyruvate Kinase Inhibitors With in vivo Anti-cryptosporidial Efficacy” (Frontiers in Microbiology, 2022):
Read-outs that look alike come from different tables or passages of the source.

Experiments:
[1] = biological target: recombinant CpPyK (rCpPyK) protein (Cryptosporidium parvum, UniProt Q5CSM7); assay: rCpPyK enzymatic activity inhibition assay (ATP detection, Cell Titer-Glo luminescence); format: biochemical
Description: The in vitro enzymatic activity of the rCpPyK protein was determined by quantitating the amount of ATP produced by the transfer of a phosphate group from phosphoenolpyruvate to adenosine diphosphate (ADP) in the presence of varying concentrations of the recombinant protein (Figure 1A). A typical assay contained 0.5 mM phosphoenolpyruvate, 0.6 mM ADP, 50 mM Tris buffer pH 7.5, 60 mM MgSO4, 100 mM KCl, and varying concentrations of rCpPyK incubated for 3 h at room temperature. The ATP generated was detected in a reaction volume of 50 μl in white opaque-walled 96 well plates by the luciferase-based Cell Titer-Glo 2.0 reagent (Promega) following the manufacturer’s instructions. The enzyme kinetics of rCpPyK were determined by using varying phosphoenolpyruvate (0–8 mM) and ADP (0–2 mM) concentrations in an enzymatic reaction catalyzed by a fixed concentration of the recombinant protein (6 ng/μl). In all assays, reaction mixtures without rCpPyK were included as negative controls. Three independent assays were performed for each experiment, and samples were run in triplicate. The luminescence generated was recorded using a multi-mode microplate reader (Spectra Max iD3; Molecular Devices, United States). GraphPad PRISM® v8 software was used to fit the Michaelis–Menten model directly to the substrate-velocity data to determine the enzymatic kinetic parameters for rCpPyK.
The Diversity Set VI chemical library (Supplementary Table 1) was obtained from the National Cancer Institute (NCI)/Developmental Therapeutics Program (DTP) Open Repository collection of chemical compounds.^1 Compounds were individually reconstituted in molecular biology grade dimethyl sulfoxide (DMSO) from Sigma-Aldrich and stored at −20°C. From the library, 1,424 compounds were screened in 96-well plates using the rCpPyK catalyzed enzyme assay to identify potential CpPyK inhibitors. The reactions were performed in 50 μl reaction volume containing 0.5 mM phosphoenolpyruvate, 0.6 mM ADP, 50 mM Tris buffer pH 7.5, 60 mM MgSO4, 100 mM KCl, and 6 ng/μl of rCpPyK protein with or without compound. The concentration of DMSO in all reaction mixtures was 1% (v/v). Control reactions without rCpPyK protein were included for background subtraction. Following 3 h of incubation at room temperature, an equal volume of the Cell Titer-Glo 2.0 reagent was added to each well, and the luminescence produced was recorded as relative luminescence units (RLU) after 10 min of incubation using a multi-mode microplate reader (Spectra Max iD3; Molecular Devices, United States). The mean percent inhibition (MPI) of rCpPyK activity by each compound was derived by dividing the difference in luminescence (RLU) between the compound-treated wells and the DMSO-treated wells by the luminescence of the DMSO-treated wells and multiplying the product by 100:
(1) MPI=[(MeanRLUDMSO-treated-MeanRLUCompound-treated)÷MeanRLUDMSO-treated]×100.
Half maximal inhibitory concentration (IC50) values were determined by applying a non-linear regression analysis curve fit to the mean dose-response data for varying concentrations of each compound using GraphPad PRISM® v8. Reactions were performed in triplicate and repeated at least thrice.

[2] = Physicochemical properties adapted from PubChem; conditions: based on Supplementary Table 2 properties
Text: Supplementary Table S2. Physicochemical properties of identified CpPyK inhibitors (Adapted from: https://pubchem.ncbi.nlm.nih.gov).
NSC Molecular Molecular Number of Number of Number of Polar number IUPAC name formula weight cLog(p) Hydrogen bond Hydrogen bond rotatable surface donors acceptors bonds area (Å²) […]

C. parvum = assay: In vivo efficacy in C. parvum-infected IFN-γ KO mice, fecal oocysts load by qPCR; parameters: species or system Cryptosporidium parvum; conditions: for relative potency among the treatments (oocysts load): 2.5 mg/kg NSC638080, NSC303244, NSC252172, 5 mg/kg NSC234945, paromomycin 1,000 mg/kg; for reduction in oocysts load compared to untreated mice / oocysts load compared to untreated mice: 10 mg/kg oral once daily; for reduction in oocysts load compared to untreated mice: day 9 PI; for oocysts load compared to untreated mice / potency, fold higher than paromomycin (1,000 mg/kg): day 10 PI; for potency, fold higher than paromomycin (1,000 mg/kg): 10 mg/kg
Description: Eight weeks old male interferon-gamma knockout (IFN-γ KO) mice (B6.129S7-Ifng^TM1Ts/J) were purchased from The Jackson Laboratory, United States, and allowed to quarantine and acclimatize for 1 week before the commencement of experiments. Before the start of the infection assays in mice, the tolerability of each inhibitor was determined by daily oral gavage with varying dosages (0–10 mg/kg mouse bodyweight) in groups of mice (n = 3 mice per group) for 8 days. During this period, mice were monitored daily for any changes in physical and mental activity, feeding, body weight, body temperature, fur condition, and body posture. […] Mice were divided into infected and uninfected groups (n = 3 mice per group) and each individual mouse was housed in a separate cage lined with sterile gauze bedding. Each mouse from the infected group was infected by oral gavage administration of 10^4 C. parvum AUCP-1 isolate oocysts suspended in 50 μl of PBS. Beginning day 3 PI, groups of mice were orally treated with CpPyK inhibitors (at the specified doses), sham (100 μl of 5% DMSO in PBS), or 1,000 mg/kg paromomycin (in sterile water) once daily for a total of 8 days. Fecal pellets were collected daily in individual sterile 15 ml tubes, and submerged in an equivalent volume of PBS containing a cocktail of penicillin (100 units/ml), streptomycin (100 μg/ml), chloramphenicol (34 μg/ml), and amphotericin (0.25 μg/ml), and stored at 4°C until use. Three independent replicate infection assays were performed. Mice were sacrificed at day 11 PI, and 5 cm of the distal small intestine just anterior to the cecum was resected and submerged in 10% neutral buffered formalin and submitted for histopathological processing in the Comparative Biosciences Histology Laboratory at the University of Illinois at Urbana-Champaign. Briefly, intestinal tissues preserved in 10% neutral buffered formalin were washed in 70% ethanol, embedded in paraffin, and sectioned transversely at a thickness of 5 μm. Sections were stained with hematoxylin and eosin. The slides were imaged using a Zeiss microscope fitted with a color camera.
DNA was isolated from 250 mg of feces collected from individual mice using the QIAamp® PowerFecal® Pro DNA kit (Qiagen, United States) following the manufacturer’s protocol. Oocysts load per gram of feces was measured by quantitative real time PCR (qPCR) analysis of the Cp18s rRNA gene (GenBank accession number AF164102) using gene-specific primers: 5′-[…]-3′ (Forward) and 5′-[…]-3′ (Reverse), described previously ([Parr et al., 2007]). To generate a quantification standard curve, fecal samples were obtained from uninfected mice and spiked with 10^8 C. parvum oocysts per gram of feces, followed by isolation of DNA as described above. Ten-fold serial dilutions of the extracted DNA were made and used as quantification standards for qPCR. C. parvum oocysts load quantification for the test mice was performed using DNA samples from the infected feces. Each 20 μl qPCR reaction contained 10 μl of PowerUp™ SYBR™ Green Master Mix (Applied Biosystems, United States), 500 nM of each primer, and 2 μl of DNA template. After 2 min of initial denaturation at 95°C, 40 cycles of denaturation at 95°C for 15 sec and annealing/extension at 60°C for 1 min were performed in a 7500 Real-Time PCR System (Applied Biosystems, United States). The oocyst load per gram of feces was derived by the 7500-system software using the generated quantification standard curves (Supplementary Figure 1).

[3] = 6 ng/μl rCpPyK, 3 h at room temperature, read-out: Enzyme inhibition IC50
[4] = 2.5 mg/kg oral once daily from day 3 PI for 8 days

Sequence of recombinant CpPyK (rCpPyK) protein (Q5CSM7 entry or part of it): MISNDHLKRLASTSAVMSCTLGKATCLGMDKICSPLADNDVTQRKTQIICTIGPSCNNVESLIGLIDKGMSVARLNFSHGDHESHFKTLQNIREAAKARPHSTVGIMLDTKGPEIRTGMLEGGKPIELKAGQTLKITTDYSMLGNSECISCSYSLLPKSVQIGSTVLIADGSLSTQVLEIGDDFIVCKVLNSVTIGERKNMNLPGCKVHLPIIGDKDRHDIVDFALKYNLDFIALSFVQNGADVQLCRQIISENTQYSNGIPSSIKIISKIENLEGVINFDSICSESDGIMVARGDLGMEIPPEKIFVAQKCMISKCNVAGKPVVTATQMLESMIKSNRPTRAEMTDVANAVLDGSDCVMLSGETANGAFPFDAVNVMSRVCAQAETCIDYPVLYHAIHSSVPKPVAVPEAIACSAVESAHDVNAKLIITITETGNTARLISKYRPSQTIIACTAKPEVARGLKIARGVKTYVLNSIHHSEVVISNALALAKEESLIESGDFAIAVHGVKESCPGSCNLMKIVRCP

Structure (SMILES) | IC50 [1, 3] | conformity to Lipinski's and Veber's rules for drug-likeness [2] | relative potency among the treatments (oocysts load) (C. parvum) | load of C. parvum oocysts shed in feces (C. parvum; [4]) | reduction in oocysts load compared to untreated mice (C. parvum) | oocysts load compared to untreated mice (C. parvum) | potency, fold higher than paromomycin (1,000 mg/kg) (C. parvum) | IC50 [1] | oocysts load by day 9 PI vs other treatments and untreated group (C. parvum; 5 mg/kg oral once daily from day 3 PI) | load of C. parvum oocysts shed in feces (C. parvum; 5 mg/kg oral once daily from day 3 PI for 8 days)
N#C/C(=C\c1cc(O)c(O)c(O)c1)C(N)=O [NSC638080, (E)-2-cyano-3-(3,4,5-trihydroxyphenyl)prop-2-enamide] | 97.1 µM | conform | least efficacy | significant reduction | – | – | – | – | – | –
CCOc1ccc(/C=C2\CCc3ccccc3C2=O)cc1 [NSC252172, (2E)-2-[(4-ethoxyphenyl)methylidene]-3,4-dihydronaphthalen-1-one] | 123 µM | conform | – | significant reduction | about threefold reduction in oocysts load | about ninefold lower oocysts load | about 2.5 fold | – | – | –
Cc1cc2c(c(C#N)c1C)NC=NC2C (stereo not drawn) [NSC303244, 4,6,7-trimethyl-1,4-dihydroquinazoline-8-carbonitrile] | 243 µM | conform | – | significant reduction | – | – | – | – | – | –
c1ccc(-c2nnc(-c3ccccn3)[nH]2)nc1 [NSC234945, 2-(3-pyridin-2-yl-1H-1,2,4-triazol-5-yl)pyridine] | – | conform | highest potency | – | about threefold reduction in oocysts load | about ninefold lower oocysts load | about 2.5 fold | 235 µM | significantly (P < 0.05) lower oocysts loads | significant reduction
